# According to paper PMC9743128, “Phenotype-based screening rediscovered benzopyran-embedded microtubule inhibitors as anti-neuroinflammatory agents by modulating the tubulin–p65 interaction” (Experimental & Molecular Medicine, 2022):
# How the values were obtained:
# BV-2 cells = assay: Cell viability assay (EZ-Cytox); conditions: BV-2, various time points
# Method: (§1) A total of 40,000 cells were seeded on a 96-well plate and incubated for 18 h. After 6-, 12- and 24-h compound treatment, 10 μL of EZ-Cytox solution (Dogen; EZ-BULK150) was added to the 96-well plate. After 30 min, the absorbance at 455 nm was measured using a microplate reader (BioTek; Synergy).
# (§2) (n=6). Data are presented as the mean ± SD.
# [1] = Cell viability assay (EZ-Cytox); conditions: mouse, BV-2 microglial cells
# Method: as §1, §2
# [2] = target: T1, p65–α-tubulin interaction (Mus musculus, UniProt P05213+P99024); assay: Immunoprecipitation of p65, IκB and α-tubulin; format: cell-based, murine; conditions: 1 h treatment, 10 μM
# T1 construct: endogenous in cells
# T1 sequence (P05213 whole entry): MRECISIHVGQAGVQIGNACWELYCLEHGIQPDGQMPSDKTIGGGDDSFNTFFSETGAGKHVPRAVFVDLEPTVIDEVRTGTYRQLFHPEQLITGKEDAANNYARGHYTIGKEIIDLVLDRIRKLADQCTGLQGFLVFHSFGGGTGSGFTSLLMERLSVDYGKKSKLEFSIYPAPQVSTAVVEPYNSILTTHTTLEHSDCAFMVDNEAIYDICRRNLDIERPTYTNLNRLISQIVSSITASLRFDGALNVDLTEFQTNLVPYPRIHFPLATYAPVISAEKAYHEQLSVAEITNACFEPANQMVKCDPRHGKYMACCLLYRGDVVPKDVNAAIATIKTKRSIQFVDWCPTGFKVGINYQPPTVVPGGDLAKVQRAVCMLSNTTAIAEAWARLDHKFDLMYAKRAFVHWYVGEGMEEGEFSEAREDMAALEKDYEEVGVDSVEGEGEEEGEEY
# T1 sequence (P99024 whole entry): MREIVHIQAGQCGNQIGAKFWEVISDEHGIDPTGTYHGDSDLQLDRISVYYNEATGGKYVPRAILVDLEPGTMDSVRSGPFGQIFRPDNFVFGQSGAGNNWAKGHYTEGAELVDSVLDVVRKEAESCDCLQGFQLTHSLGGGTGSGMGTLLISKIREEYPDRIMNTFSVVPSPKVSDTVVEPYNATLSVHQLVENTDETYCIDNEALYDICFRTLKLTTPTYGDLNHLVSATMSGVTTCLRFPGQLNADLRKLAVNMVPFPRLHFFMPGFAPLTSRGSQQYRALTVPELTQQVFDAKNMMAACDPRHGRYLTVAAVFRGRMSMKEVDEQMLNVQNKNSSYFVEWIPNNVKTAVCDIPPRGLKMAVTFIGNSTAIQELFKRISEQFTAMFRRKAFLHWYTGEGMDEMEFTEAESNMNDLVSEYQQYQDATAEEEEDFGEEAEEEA
# Method: After a 1-h incubation in the absence or presence of SB26019, cells were harvested and lysed for 1 h on ice with IP lysis buffer {50 mM Tris–HCl pH 8.0 (Acros; #77-86-1), 200 mM NaCl, 0.5% NP40 (Sigma; #I8896), and 1× protease inhibitor cocktail (Roche; #11873580001)}. The protein concentration was measured using a bicinchoninic acid (BCA) protein assay kit (Thermo; #23225). Then, 150 μg of the lysates were incubated with 1.5 μg of anti-p65 antibody (Abcam; ab16502), anti-IκB antibody (CST; #4814), or α-tubulin antibody (CST; #3873) at 4 °C overnight. Subsequently, the proteins of interest were precipitated using protein A and G beads (Santa Cruz; sc-2001, sc-2002). Samples were analyzed with western blotting using anti-p65, IκB, and α-tubulin primary antibodies.
# To understand the inhibitory mechanism of p65 nuclear translocation by SB26019, the expression levels of p65, IκB, and tubulin monomers were monitored upon SB26019 treatment in murine macrophage cells. […] Additionally, nuclear translocation of p65 was inhibited by SB26019 treatment despite an increase in phospho-IκB and a decrease in total IκB (Fig. 3e). […] Consequently, IκB is released from p65 and degraded by the proteasome. […] To test this hypothesis, we monitored protein‒protein interactions among p65, IκB, and tubulin with immunoprecipitation. […]
# tubulin = target: T2, tubulin (Sus scrofa, UniProt P02550+P02554); assay: Tubulin polymerization assay; format: biochemical; conditions: 1 μM compound
# T2 construct: purchased Cytoskeleton BK006P
# T2 sequence (P02554 whole entry): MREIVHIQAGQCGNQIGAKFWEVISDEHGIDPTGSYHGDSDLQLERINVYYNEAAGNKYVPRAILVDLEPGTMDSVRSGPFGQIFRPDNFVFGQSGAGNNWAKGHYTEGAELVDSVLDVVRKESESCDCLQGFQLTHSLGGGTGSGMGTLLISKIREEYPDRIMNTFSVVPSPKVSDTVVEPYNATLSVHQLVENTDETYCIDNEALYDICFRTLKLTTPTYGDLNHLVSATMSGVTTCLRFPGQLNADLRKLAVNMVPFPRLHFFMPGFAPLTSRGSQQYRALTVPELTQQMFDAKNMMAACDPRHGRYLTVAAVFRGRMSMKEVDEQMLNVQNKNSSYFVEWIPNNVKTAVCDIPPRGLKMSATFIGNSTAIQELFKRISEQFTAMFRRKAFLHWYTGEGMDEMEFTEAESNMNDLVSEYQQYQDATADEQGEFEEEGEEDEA
# T2 sequence (P02550 whole entry): as the sequence (P05213 whole entry) above, with L136S, S232G, I265A, S340T, Q358E counted along it
# Method: The tubulin polymerization inhibition efficacy of the compounds was measured by a tubulin polymerization assay kit (Cytoskeleton; BK006P) according to the manufacturer’s manual. Absorbance at 340 nm was measured to observe the formation of tubulin polymers using a microplate reader (Biotek; Synergy).
# Supplementary Fig. 4. Tubulin polymerization inhibition by compounds 1–13 (1 μM). In the presence or absence of compounds, tubulin was incubated to polymerize at room temperature. Absorbance at 340 nm was measured in a time-dependent manner for monitoring the rate of tubulin polymerization.
# Supplementary Table 2. Tubulin polymerization inhibition of the focused library. Tubulin was incubated with each compound (1 μM) and the tubulin polymerization inhibition was monitored. Vmax was calculated from tubulin polymer generation curve data of Supplementary Fig. 3.
# IκB in J774A.1 cells = assay: Western blot of IκB; format: cell-based; conditions: murine macrophage cells; inhibited by MG132 pretreatment
# Method: The proteome was analyzed by SDS‒PAGE and transferred to PVDF membranes (Bio-Rad; BR162-0177). The membranes were blocked with 2% BSA in Tris-buffered saline containing 0.1% Tween-20 (TBST) for 1 h. To detect the desired proteins, the membranes were incubated overnight at 4 °C with the primary antibodies—1:1000 dilution of α-tubulin (CST; #3873), β-tubulin (CST; #2146), IκB (CST; #4814), caspase-1 (CST; #24232), cleaved caspase-1 (CST; #89332), IL-1β (CST; #31202), cleaved IL-1β (CST; #63124), acetylated α-tubulin (CST; #5335), p65 (Abcam; ab16502), FLAG (Abcam; ab49763); and 1:2,000 dilution of GAPDH (CST; #2118), β-actin (CST; #4970), and LMNB1 (Abcam; ab16048). After washing with TBST, the resulting membranes were exposed to HRP-conjugated secondary antibody—1:5000 dilution of anti-rabbit (CST; #7074) and anti-mouse (CST; #7076)—for 1 h at room temperature. After washing with TBST, the membranes were incubated with an enhanced chemiluminescence (ECL) prime kit (Cytiva; RPN2232). Chemiluminescent signals from the desired proteins were detected using ChemiDoc. […]
# To understand the inhibitory mechanism of p65 nuclear translocation by SB26019, the expression levels of p65, IκB, and tubulin monomers were monitored upon SB26019 treatment in murine macrophage cells. […] To test this hypothesis, we monitored protein‒protein interactions among p65, IκB, and tubulin with immunoprecipitation. […]
structure (smiles),measurement,setting,value
COc1ccc2c(c1O)OC(C)(C)C=C2c1cccc2c1oc1ccccc12 [Compound 8],Cytotoxicity (cell viability curve),BV-2 cells,without considerable cytotoxicity
same,viability at 10 µM,[1],108%
same,Interaction between p65 and α-tubulin,[2],increased
same,Vmax of microtubule polymerization compared to DMSO control,tubulin,significantly inhibited tubulin polymerization
same,IκB degradation,IκB in J774A.1 cells,induced IκB degradation in a time- and dose-dependent manner
